Data published in patent US20230078764A1 (Yumanity Therapeutics, Inc., priority 2019, published 2023).
Where two headings read alike, the source gives them in different places.

What was measured:
human SCD1 = target: T1, human SCD1 (Homo sapiens, UniProt O00767); test: Growth inhibition of yeast strain expressing human SCD1 as sole desaturase (OLE1 deleted), OD600 readout; format: cell-based
T1 construct: expressed in transfected cells; host or cells: yeast strain with OLE1 deleted, plasmid-borne human SCD1 (selected in SD-Ura)
T1 sequence (O00767 1-359): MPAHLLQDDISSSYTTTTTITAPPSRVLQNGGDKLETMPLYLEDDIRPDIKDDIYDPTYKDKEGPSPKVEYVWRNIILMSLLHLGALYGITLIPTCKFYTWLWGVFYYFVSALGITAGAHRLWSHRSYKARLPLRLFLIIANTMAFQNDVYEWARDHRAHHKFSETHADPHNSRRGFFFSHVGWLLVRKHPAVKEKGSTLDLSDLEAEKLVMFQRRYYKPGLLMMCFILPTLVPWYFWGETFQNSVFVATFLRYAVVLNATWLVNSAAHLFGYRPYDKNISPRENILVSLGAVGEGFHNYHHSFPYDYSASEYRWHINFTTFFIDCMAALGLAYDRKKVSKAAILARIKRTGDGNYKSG

human SCD5 = target: T2, human SCD5 (Homo sapiens, UniProt Q86SK9); test: Growth inhibition of yeast strain expressing human SCD5 as sole desaturase (OLE1 deleted), OD600 readout; format: cell-based
T2 construct: expressed in transfected cells; host or cells: yeast strain with OLE1 deleted, plasmid-borne human SCD5 (selected in SD-Ura)
T2 sequence (Q86SK9 1-330): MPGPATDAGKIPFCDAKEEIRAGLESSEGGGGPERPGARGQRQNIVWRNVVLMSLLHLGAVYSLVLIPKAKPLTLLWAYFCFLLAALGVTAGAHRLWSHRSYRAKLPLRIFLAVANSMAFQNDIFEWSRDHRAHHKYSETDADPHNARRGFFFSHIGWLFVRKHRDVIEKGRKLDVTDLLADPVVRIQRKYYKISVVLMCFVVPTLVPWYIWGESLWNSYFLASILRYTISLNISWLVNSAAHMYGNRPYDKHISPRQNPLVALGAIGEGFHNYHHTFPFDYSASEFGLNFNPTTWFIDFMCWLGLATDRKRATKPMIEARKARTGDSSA

[1] = yeast strain expressing human SCD1 as sole desaturase, growth (OD600) after 40 h at 30° C., read-out: SCD1 IC50
[2] = yeast strain expressing human SCD5 as sole desaturase, growth (OD600) after 40 h at 30° C., read-out: SCD5 IC50

| SMILES | IC50 (human SCD1; [1]) [nM] | IC50 (human SCD5; [2]) [nM] | IC50 (human SCD5; SCD5 IC50) [nM] | IC50 (human SCD1; SCD1 IC50) [nM] |
| --- | --- | --- | --- | --- |
| Cn1nc(C(=O)Nc2ccc(Cc3cccc(Cl)c3)nn2)ccc1=O [Compound 196, N-(6-(3-chlorobenzyl)pyridazin-3-yl)-1-methyl-6-oxo-1,6-dihydropyridazine-3-carboxamide] | 5580 | 1560 |  |  |
| CN1N=C(C(=O)Nc2ccc(Cc3cccc(Cl)c3)nn2)CCC1=O [Compound 197, N-(6-(3-chlorobenzyl)pyridazin-3-yl)-1-methyl-6-oxo-1,4,5,6-tetrahydropyridazine-3-carboxamide] | 2750 | 370 |  |  |
| CN1N=C(C(=O)Nc2ccc(CC3CCCCC3)nn2)CCC1=O [Compound 198, N-(6-(cyclohexylmethyl)pyridazin-3-yl)-1-methyl-6-oxo-1,4,5,6-tetrahydropyridazine-3-carboxamide] | > 45000 | 7180 |  |  |
| CCn1nc(C(=O)Nc2ccc(Cc3cccc(F)c3)nn2)ccc1=O [Compound 199, 1-ethyl-N-(6-(3-fluorobenzyl)pyridazin-3-yl)-6-oxo-1,6-dihydropyridazine-3-carboxamide] | > 45000 | 5800 |  |  |
| Cn1nc(C(=O)Nc2ncc(Cc3cccc(F)c3)s2)ccc1=O [Compound 202, N-(5-(3-fluorobenzyl)thiazol-2-yl)-1-methyl-6-oxo-1,6-dihydropyridazine-3-carboxamide] | 20 | 20 |  |  |
| COC(c1cccc(F)c1)c1cnc(NC(=O)C2=NN(C)C(=O)CC2)s1 (stereo not drawn) [Compound 204, N-(5-((3-fluorophenyl)(methoxy)methyl)thiazol-2-yl)-1-methyl-6-oxo-1,4,5,6-tetrahydropyridazine-3-carboxamide] | > 45000 | 27900 |  |  |
| CN1N=C(C(=O)Nc2ncc(C(O)c3cccc(F)c3)s2)CCC1=O (stereo not drawn) [Compound 205, N-(5-((3-fluorophenyl)(hydroxy)methyl)thiazol-2-yl)-1-methyl-6-oxo-1,4,5,6-tetrahydropyridazine-3-carboxamide] | > 45000 | 29400 |  |  |
| CN1N=C(C(=O)Nc2ncc(Cc3ccccc3F)s2)CCC1=O [Compound 206, N-(5-(2-fluorobenzyl)thiazol-2-yl)-1-methyl-6-oxo-1,4,5,6-tetrahydropyridazine-3-carboxamide] | 3360 | 2510 |  |  |
| CN1N=C(C(=O)Nc2ncc(Cc3cccc(Cl)c3)s2)CCC1=O [Compound 207, N-(5-(3-chlorobenzyl)thiazol-2-yl)-1-methyl-6-oxo-1,4,5,6-tetrahydropyridazine-3-carboxamide] | 90 | 10 |  |  |
| CN1N=C(C(=O)Nc2ncc(Cc3ccc(F)cc3)s2)CCC1=O [Compound 208, N-(5-(4-fluorobenzyl)thiazol-2-yl)-1-methyl-6-oxo-1,4,5,6-tetrahydropyridazine-3-carboxamide] | 130 | 50 |  |  |
| CN1N=C(C(=O)Nc2ncc(Cc3cccc(C#N)c3)s2)CCC1=O [Compound 209, N-(5-(3-cyanobenzyl)thiazol-2-yl)-1-methyl-6-oxo-1,4,5,6-tetrahydropyridazine-3-carboxamide] | 1690 | 2450 |  |  |
| COc1cccc(Cc2cnc(NC(=O)c3ccc(=O)n(C)n3)s2)c1 [Compound 212, N-(5-(3-methoxybenzyl)thiazol-2-yl)-1-methyl-6-oxo-1,6-dihydropyridazine-3-carboxamide] | 150 | 40 |  |  |
| CN1N=C(C(=O)Nc2ncc(Cc3ccc(Cl)cc3)s2)CCC1=O [Compound 213, N-(5-(4-chlorobenzyl)thiazol-2-yl)-1-methyl-6-oxo-1,4,5,6-tetrahydropyridazine-3-carboxamide] | 390 | 380 |  |  |
| CC(c1cccc(F)c1)c1cnc(NC(=O)C2=NN(C)C(=O)CC2)s1 (stereo not drawn) [Compound 214, N-(5-(1-(3-fluorophenyl)ethyl)thiazol-2-yl)-1-methyl-6-oxo-1,4,5,6-tetrahydropyridazine-3-carboxamide] | 14500 | 1750 |  |  |
| CN1N=C(C(=O)Nc2ncc(Cc3cc(F)cc(Cl)c3)s2)CCC1=O [Compound 216, N-(5-(3-chloro-5-fluorobenzyl)thiazol-2-yl)-1-methyl-6-oxo-1,4,5,6-tetrahydropyridazine-3-carboxamide] | 10 | 20 |  |  |
| CN1N=C(C(=O)Nc2nc(Cl)c(Cc3cccc(F)c3)s2)CCC1=O [Compound 218, N-(4-chloro-5-(3-fluorobenzyl)thiazol-2-yl)-1-methyl-6-oxo-1,4,5,6-tetrahydropyridazine-3-carboxamide] | 2730 | 360 |  |  |
| Cc1nc(NC(=O)C2=NN(C)C(=O)CC2)sc1Cc1cccc(F)c1 [Compound 219, N-(5-(3-fluorobenzyl)-4-methylthiazol-2-yl)-1-methyl-6-oxo-1,4,5,6-tetrahydropyridazine-3-carboxamide] | 1580 | 1350 |  |  |
| CN1N=C(C(=O)Nc2ncc(Cc3cccc(F)c3)s2)CCC1=O [Compound 220] | 660 | 520 |  |  |
| CN1N=C(C(=O)N(C)c2ncc(Cc3cccc(F)c3)s2)CCC1=O [Compound 221] | > 45000 | > 45000 |  |  |
| CC(C)N1N=C(C(=O)Nc2ncc(Cc3cccc(Cl)c3)s2)CCC1=O [Compound 222, N-(5-(3-Chlorobenzyl)thiazol-2-yl)-1-isopropyl-6-oxo-1,4,5,6-tetrahydropyridazine-3-carboxamide] | 7450 | 2510 |  |  |
| CN1CC(C(=O)Nc2ncc(Cc3cccc(F)c3)s2)CCC1=O (stereo not drawn) [Compound 223, N-(5-(3-fluorobenzyl)thiazol-2-yl)-1-methyl-6-oxopiperidine-3-carboxamide] | > 45000 |  | 11300 |  |
| Cn1cc(C(=O)Nc2ncc(Cc3cccc(F)c3)s2)ccc1=O [Compound 224, N-(5-(3-fluorobenzyl)thiazol-2-yl)-1-methyl-6-oxo-1,6-dihydropyridine-3-carboxamide] |  |  | 220 | 310 |
| O=C(Nc1ncc(Cc2cccc(Cl)c2)s1)c1ccc(=O)n(C2COC2)n1 [Compound 225, N-(5-(3-chlorobenzyl)thiazol-2-yl)-1-(oxetan-3-yl)-6-oxo-1,6-dihydropyridazine-3-carboxamide] | 2070 | 1960 |  |  |
| O=C(Nc1ncc(Cc2cccc(F)c2)s1)c1ccc(=O)n(CCF)n1 [Compound 226, N-(5-(3-fluorobenzyl)thiazol-2-yl)-1-(2-fluoroethyl)-6-oxo-1,6-dihydropyridazine-3-carboxamide] | 7270 | 5710 |  |  |
| CCn1nc(C(=O)Nc2ncc(Cc3cccc(F)c3)s2)ccc1=O [Compound 227, 1-ethyl-N-(5-(3-fluorobenzyl)thiazol-2-yl)-6-oxo-1,6-dihydropyridazine-3-carboxamide] | 440 | 360 |  |  |
| CN1N=C(C(=O)Nc2ncc(Cc3cc(F)cc(F)c3)s2)CCC1=O [Compound 229, N-(5-(3,5-difluorobenzyl)thiazol-2-yl)-1-methyl-6-oxo-1,4,5,6-tetrahydropyridazine-3-carboxamide] | 140 | 110 |  |  |
| CN1N=C(C(=O)Nc2ncc(Cc3ccccc3Cl)s2)CCC1=O [Compound 230, N-(5-(2-chlorobenzyl)thiazol-2-yl)-1-methyl-6-oxo-1,4,5,6-tetrahydropyridazine-3-carboxamide] | 2880 | 3800 |  |  |
